Results from ChEMBL document CHEMBL1201862, “PubChem BioAssay data set” (2004).
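48-hour exposure; five concentrations; linearly interpolated endpoints. GI50 = concentration required for 50% inhibition of growth.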 Calls of active or inactive are those of the source. Rule as the data show it: active = GI50 up to about 1.1 µM and inactive = higher.

How the values were obtained:
Test in all cases: NCI anticancer screen, dose series, 48 h
NCI-H460 = test system: NCI-H460
HCT-116 = test system: HCT-116
UACC-62 = test system: UACC-62
HL-60 = test system: HL-60
MDA-MB-435 = test system: MDA-MB-435
COLO 205 = test system: COLO 205
SW-620 = test system: SW-620
Malme-3M = test system: Malme-3M
BT-549 = test system: BT-549
SK-OV-3 = test system: SK-OV-3
SK-MEL-5 = test system: SK-MEL-5
OVCAR-3 = test system: OVCAR-3
SF-539 = test system: SF-539
LXFL 529 = test system: LXFL 529
NCI-H23 = test system: NCI-H23
OVCAR-5 = test system: OVCAR-5
HOP-92 = test system: HOP-92
CAKI-1 = test system: CAKI-1
A498 = test system: A498
SK-MEL-2 = test system: SK-MEL-2

SMILES | GI50 (NCI-H460) | GI50 (HCT-116) | GI50 (UACC-62) | GI50 (HL-60) | GI50 (MDA-MB-435) | GI50 (COLO 205) | GI50 (SW-620) | GI50 (Malme-3M) | GI50 (BT-549) | GI50 (SK-OV-3) | GI50 (SK-MEL-5) | GI50 (OVCAR-3) | GI50 (SF-539) | GI50 (LXFL 529) | GI50 (NCI-H23) | GI50 (OVCAR-5) | GI50 (HOP-92) | GI50 (CAKI-1) | GI50 (A498) | GI50 (SK-MEL-2)
Cc1cc(N(CCOS(C)(=O)=O)CCOS(C)(=O)=O)ccc1/C=N/c1ccc(-c2nc(Cc3ccccc3)sc2C)cc1 | 0.0281 µM (active) | 15.2 µM (inactive) | 1.47 µM (inactive) | 1.17 µM (inactive) | 11 µM (inactive) | 1.43 µM (inactive) | 8.57 µM (inactive) | 11.4 µM (inactive) | 9.12 µM (inactive) | 0.494 µM (active) | 9.68 µM (inactive) | 2.87 µM (inactive) | 1.8 µM (inactive) | 16.6 µM (inactive) | 2.91 µM (inactive) | 11.2 µM (inactive) | 8.71 µM (inactive) | 1.23 µM (inactive) | 1.55 µM (inactive) | 15.3 µM (inactive)
COc1cccc(NC(=O)C(C)(C)C)c1SSc1c(NC(=O)C(C)(C)C)cccc1OC | 60.4 µM (inactive) | 22.4 µM (inactive) | 19.3 µM (inactive) | 20.3 µM (inactive) |  | 26.9 µM (inactive) | 18.2 µM (inactive) | 33.7 µM (inactive) |  | > 83.4 µM (inactive) | 44.1 µM (inactive) | 37.9 µM (inactive) | 20.8 µM (inactive) | 15.8 µM (inactive) | 35 µM (inactive) | 26.7 µM (inactive) | 36.1 µM (inactive) | > 42.5 µM (inactive) | > 100 µM (inactive) | 48.3 µM (inactive)
CN(C)C(=O)Nc1c([N+](=O)[O-])cc(C(F)(F)F)cc1[N+](=O)[O-] | 42.9 µM (inactive) | 24.6 µM (inactive) | 46.9 µM (inactive) | 19.4 µM (inactive) |  | 25 µM (inactive) | 32.7 µM (inactive) |  |  | > 100 µM (inactive) | 17.2 µM (inactive) | 19.5 µM (inactive) | 42 µM (inactive) | 40.9 µM (inactive) | 27.7 µM (inactive) | > 100 µM (inactive) | 53.5 µM (inactive) | > 100 µM (inactive) | > 100 µM (inactive) | 58.7 µM (inactive)
Nc1nc2ncn(CC(O)COC(=O)c3ccccc3)c2c(=O)[nH]1 (stereo not drawn) | > 100 µM (inactive) | > 100 µM (inactive) | > 100 µM (inactive) | > 100 µM (inactive) |  | > 100 µM (inactive) | > 100 µM (inactive) | > 100 µM (inactive) |  | > 100 µM (inactive) | > 100 µM (inactive) | > 100 µM (inactive) | > 100 µM (inactive) | > 100 µM (inactive) | > 100 µM (inactive) | > 100 µM (inactive) | > 100 µM (inactive) | > 100 µM (inactive) | > 100 µM (inactive) | > 100 µM (inactive)
CCC1(Cl)C(=O)NC(=O)N(C2CC(O)C(CO)O2)C1N=[N+]=[N-] (stereo not drawn) | > 100 µM (inactive) |  | > 100 µM (inactive) | > 100 µM (inactive) |  | > 100 µM (inactive) | > 100 µM (inactive) | > 100 µM (inactive) |  | > 100 µM (inactive) | > 100 µM (inactive) | > 100 µM (inactive) | > 100 µM (inactive) | > 100 µM (inactive) | 65.3 µM (inactive) | > 100 µM (inactive) | > 100 µM (inactive) | > 100 µM (inactive) | > 100 µM (inactive) | > 100 µM (inactive)
CC(C)C(NCc1c2ccccc2[n+](C)c2ccccc12)C(=O)O (stereo not drawn) | 5.94 µM (inactive) | 2.67 µM (inactive) | 3.56 µM (inactive) | 1.97 µM (inactive) |  | 2.34 µM (inactive) | 3.7 µM (inactive) | 6.62 µM (inactive) |  | 15.5 µM (inactive) | 3.31 µM (inactive) | 5.81 µM (inactive) | 5.94 µM (inactive) | 3.53 µM (inactive) | 8.43 µM (inactive) | 18.9 µM (inactive) | 3.57 µM (inactive) | 3.48 µM (inactive) | 7.26 µM (inactive) | 6.04 µM (inactive)
CNC(=O)OC1/C(C)=C\C(C)C(O)C(OC)CC(C)CC2=C(OC)C(=O)C=C(C2=O)N(C)C(=O)/C(C)=C/C=C\C1OC (stereo not drawn) | 11.1 µM (inactive) | 8.05 µM (inactive) | 3.84 µM (inactive) |  |  | 0.424 µM (active) | 0.35 µM (active) | 5.69 µM (inactive) | 5 µM (inactive) | 10.2 µM (inactive) | 7.64 µM (inactive) | 3.8 µM (inactive) | 8.32 µM (inactive) | 4.86 µM (inactive) | 4.86 µM (inactive) | 13.1 µM (inactive) | 2.8 µM (inactive) | 7.4 µM (inactive) | 18.5 µM (inactive) | 8.85 µM (inactive)
Cc1ccc(C)c(N2C(=O)C(=O)C(c3nc4ccccc4o3)C(=O)C2=O)c1 | > 100 µM (inactive) | 27.1 µM (inactive) | 43.9 µM (inactive) | 17.3 µM (inactive) |  | 32.9 µM (inactive) | 46.3 µM (inactive) | 49.2 µM (inactive) |  | > 100 µM (inactive) | 67.5 µM (inactive) | 39.4 µM (inactive) | > 100 µM (inactive) | 48.9 µM (inactive) | 43.6 µM (inactive) |  | 92 µM (inactive) | > 100 µM (inactive) | > 100 µM (inactive) | > 100 µM (inactive)
N#CC(N)(C(=O)C(=O)NCCCNC(=O)C(=O)C(N)(C#N)c1ccc(Cl)cc1)c1ccc(Cl)cc1 (stereo not drawn) | > 100 µM (inactive) | > 100 µM (inactive) | > 100 µM (inactive) | 54.7 µM (inactive) |  | > 100 µM (inactive) | > 100 µM (inactive) | > 100 µM (inactive) |  | > 100 µM (inactive) | > 100 µM (inactive) | > 100 µM (inactive) | > 100 µM (inactive) | > 100 µM (inactive) | > 100 µM (inactive) | > 100 µM (inactive) | > 100 µM (inactive) | > 100 µM (inactive) | > 100 µM (inactive) | > 100 µM (inactive)
CS/C(c1ccccc1)=[N+](\[O-])Cc1ccccc1 | 33.6 µM (inactive) | > 100 µM (inactive) | > 100 µM (inactive) | > 100 µM (inactive) |  | > 100 µM (inactive) |  | > 100 µM (inactive) |  | > 100 µM (inactive) | > 100 µM (inactive) | > 100 µM (inactive) | > 100 µM (inactive) | > 100 µM (inactive) | > 100 µM (inactive) | > 100 µM (inactive) | > 100 µM (inactive) | > 100 µM (inactive) | > 100 µM (inactive) | > 100 µM (inactive)
N#CC(C(=O)/C(=N/Nc1nc(S)nn1N)C(C#N)c1ccccc1)c1ccccc1 (stereo not drawn) | > 100 µM (inactive) | > 100 µM (inactive) | > 100 µM (inactive) | > 100 µM (inactive) | > 100 µM (inactive) | > 100 µM (inactive) | > 100 µM (inactive) | > 100 µM (inactive) | > 100 µM (inactive) | > 100 µM (inactive) | > 100 µM (inactive) | > 100 µM (inactive) | > 100 µM (inactive) | > 100 µM (inactive) | > 100 µM (inactive) | > 100 µM (inactive) | > 100 µM (inactive) | > 100 µM (inactive) | > 100 µM (inactive) | > 100 µM (inactive)
COc1ccc2c(c1)c(=O)c1c(NCCCN(C)C)ccc3ncn2c31 | 1.39 µM (inactive) | 0.188 µM (active) | 11.4 µM (inactive) | 4.42 µM (inactive) | 6.05 µM (inactive) | 2.8 µM (inactive) | 1.01 µM (active) | 11.6 µM (inactive) | 17.6 µM (inactive) | 8.38 µM (inactive) | 7.67 µM (inactive) | 10.4 µM (inactive) | 3.93 µM (inactive) | 3.41 µM (inactive) | 5.87 µM (inactive) | 12.3 µM (inactive) | 4.13 µM (inactive) | 5.68 µM (inactive) | 11.2 µM (inactive) | 14.2 µM (inactive)
COc1cccc2c1C(=O)OC2c1cccc2ccccc12 (stereo not drawn) | 98.9 µM (inactive) | > 96.6 µM (inactive) | > 100 µM (inactive) | > 46.6 µM (inactive) | > 100 µM (inactive) | > 100 µM (inactive) | > 100 µM (inactive) | > 100 µM (inactive) | > 100 µM (inactive) | > 73.6 µM (inactive) | > 100 µM (inactive) | 74.8 µM (inactive) | 63.7 µM (inactive) | > 100 µM (inactive) | > 100 µM (inactive) | > 100 µM (inactive) | 30.9 µM (inactive) | > 100 µM (inactive) | > 52.5 µM (inactive) | > 100 µM (inactive)
